# According to ChEMBL document CHEMBL1201862, “PubChem BioAssay data set” (2004):
# Structures can show the parent of a compound that is named as a salt. Calls of active or inactive are those of the source.
# Assays:
# [1] = molecular target: T1, Coagulation factor XII (Homo sapiens, UniProt P00748); assay: Factor XIIa Dose Response Confirmation from Single Well HTS. [Related pubchem assays (depositor defined):AID701]; assay type: functional
# T1 sequence (P00748 whole entry): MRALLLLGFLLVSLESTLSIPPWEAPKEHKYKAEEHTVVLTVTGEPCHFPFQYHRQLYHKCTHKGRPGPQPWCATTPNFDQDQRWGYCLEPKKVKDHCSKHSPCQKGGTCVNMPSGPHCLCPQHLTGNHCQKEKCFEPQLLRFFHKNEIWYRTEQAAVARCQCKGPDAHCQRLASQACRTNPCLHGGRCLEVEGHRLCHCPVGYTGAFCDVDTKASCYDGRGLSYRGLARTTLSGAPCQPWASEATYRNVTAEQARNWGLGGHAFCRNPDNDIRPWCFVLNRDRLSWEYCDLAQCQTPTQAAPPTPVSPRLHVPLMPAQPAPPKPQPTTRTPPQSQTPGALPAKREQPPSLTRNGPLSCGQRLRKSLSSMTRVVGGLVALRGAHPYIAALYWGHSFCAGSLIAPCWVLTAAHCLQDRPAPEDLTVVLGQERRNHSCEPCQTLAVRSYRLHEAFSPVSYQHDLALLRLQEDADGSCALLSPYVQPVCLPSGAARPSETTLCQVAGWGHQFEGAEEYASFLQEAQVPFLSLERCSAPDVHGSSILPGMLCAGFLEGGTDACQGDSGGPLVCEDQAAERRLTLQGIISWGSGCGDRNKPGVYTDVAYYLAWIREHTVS
# [2] = molecular target: Melanocortin receptor 4 (Homo sapiens, UniProt P32245); assay type: functional, cell-based;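 also: Cell-based assay with luminescence read-out, confirmatory dose-response testing for agonist activity of biased ligands at MC4R; human U2OS cells with tagged receptor and beta-arrestin; potency of agonists that increase receptor coupling to beta-arrestin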
# Sequence of Melanocortin receptor 4 (P32245 whole entry): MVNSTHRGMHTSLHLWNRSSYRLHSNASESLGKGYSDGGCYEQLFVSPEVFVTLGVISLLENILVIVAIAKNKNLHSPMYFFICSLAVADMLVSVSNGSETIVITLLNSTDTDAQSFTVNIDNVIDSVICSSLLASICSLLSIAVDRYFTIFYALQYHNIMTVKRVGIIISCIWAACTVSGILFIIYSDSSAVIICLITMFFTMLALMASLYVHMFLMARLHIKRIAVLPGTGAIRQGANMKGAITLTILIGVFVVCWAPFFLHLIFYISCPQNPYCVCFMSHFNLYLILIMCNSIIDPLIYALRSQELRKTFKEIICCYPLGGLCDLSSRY
# [3] = Vero E6 cell cytotoxicity, dose response, cytotoxicity control for non-replicating M. tuberculosis project, secondary assay (AID 492998); assay type: functional, VeroE6; settings: Vero C1008
# [4] = loss of viability in HepG2 cells – cell-based, CellTiter-Glo, cherry-picked, cytotoxicity control for Shn3 inhibitor project, dose response (AID 624134); assay type: functional
# [5] = THP-1 cell cytotoxicity, dose response, cytotoxicity control for non-replicating M. tuberculosis project (AID 489025); assay type: functional
# [6] = molecular target: T2, Ubiquitin-conjugating enzyme E2 N (Homo sapiens, UniProt P61088); assay type: functional;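 also: Dose-response confirmation in a TR-FRET assay detecting UBC13-driven polyubiquitin chain formation, inhibition measured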
# T2 sequence (P61088 whole entry): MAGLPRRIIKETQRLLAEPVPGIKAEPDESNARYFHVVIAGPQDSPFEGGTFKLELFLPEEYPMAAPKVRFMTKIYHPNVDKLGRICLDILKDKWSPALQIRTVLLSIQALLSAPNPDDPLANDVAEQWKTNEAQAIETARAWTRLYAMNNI
# [7] = molecular target: Nonstructural protein 1 (Influenza A virus, UniProt Q194T2); assay type: functional, Influenza A virus (A/California/07/2009(H1N1))
# Sequence of Nonstructural protein 1 (Q194T2 whole entry): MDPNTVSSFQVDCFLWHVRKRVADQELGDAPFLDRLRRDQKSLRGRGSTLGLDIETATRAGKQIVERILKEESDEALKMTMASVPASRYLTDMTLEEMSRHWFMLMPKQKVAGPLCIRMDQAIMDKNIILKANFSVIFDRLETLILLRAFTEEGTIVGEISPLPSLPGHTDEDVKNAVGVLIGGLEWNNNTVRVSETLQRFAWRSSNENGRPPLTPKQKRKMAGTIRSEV
# [8] = reduction of Shn3 3'UTR-driven luciferase in osteoblasts – cell-based, Clone20 osteoblasts, firefly luciferase, cherry-picked, dose response (AID 624132); assay type: functional;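 also: firefly luciferase luminescence from reporter carrying the Shn3 3'UTR in osteoblasts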
# [9] = HepG2 cell cytotoxicity, dose response, cytotoxicity control for non-replicating M. tuberculosis project (AID 489018); assay type: functional; settings: Mycobacterium tuberculosis
# [10] = cells; assay type: functional
# [11] = Trypanosoma cruzi growth suppression in host cells – NIH3T3 host cells, beta-gal luminescence, confirmation (AID 2044); assay type: functional, cell-based;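 also: intracellular parasites grown in NIH/3T3 mouse fibroblasts as host cells; luminescent beta-galactosidase reporter signal from transgenic T. cruzi replicating inside host cells; inhibitors lower the luminescence signal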
# [12] = molecular target: 72 kDa type IV collagenase (Homo sapiens, UniProt P08253); assay: Dose Response validation of uHTS RPN11 inhibitor hits using a MMP-2 Fluorescence assay.; assay type: functional
# Sequence of 72 kDa type IV collagenase (P08253 whole entry): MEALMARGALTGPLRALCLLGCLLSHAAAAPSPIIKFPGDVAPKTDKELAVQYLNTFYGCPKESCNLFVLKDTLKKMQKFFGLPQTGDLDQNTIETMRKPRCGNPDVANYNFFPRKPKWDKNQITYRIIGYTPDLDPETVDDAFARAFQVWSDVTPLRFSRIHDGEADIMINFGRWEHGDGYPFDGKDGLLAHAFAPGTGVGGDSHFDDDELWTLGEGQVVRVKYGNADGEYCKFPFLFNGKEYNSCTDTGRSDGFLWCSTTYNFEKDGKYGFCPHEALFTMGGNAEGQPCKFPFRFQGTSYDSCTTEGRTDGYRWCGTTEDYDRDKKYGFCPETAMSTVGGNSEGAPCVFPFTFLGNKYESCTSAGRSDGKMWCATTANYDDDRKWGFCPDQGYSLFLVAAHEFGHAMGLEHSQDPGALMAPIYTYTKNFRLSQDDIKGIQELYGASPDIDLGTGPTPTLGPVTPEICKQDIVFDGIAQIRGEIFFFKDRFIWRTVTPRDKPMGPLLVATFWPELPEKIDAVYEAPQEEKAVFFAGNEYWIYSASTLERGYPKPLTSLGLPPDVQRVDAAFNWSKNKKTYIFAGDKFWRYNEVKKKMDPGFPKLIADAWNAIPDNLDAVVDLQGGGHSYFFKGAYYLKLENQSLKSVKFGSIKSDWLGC
# [13] = NIH3T3 cell viability loss – ATP luminescence, mouse fibroblasts, counter-screen, dose response (AID 2010); assay type: functional, cell-based;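 also: cells exposed to compound for about 90 hours before reading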
# [14] = molecular target: 26S proteasome non-ATPase regulatory subunit 14 (Homo sapiens, UniProt O00487); assay: inhibition of proteasome subunit RPN11 – biochemical, fluorescence polarization, uHTS hits, confirmation (AID 602368); assay type: functional
# Sequence of 26S proteasome non-ATPase regulatory subunit 14 (O00487 whole entry): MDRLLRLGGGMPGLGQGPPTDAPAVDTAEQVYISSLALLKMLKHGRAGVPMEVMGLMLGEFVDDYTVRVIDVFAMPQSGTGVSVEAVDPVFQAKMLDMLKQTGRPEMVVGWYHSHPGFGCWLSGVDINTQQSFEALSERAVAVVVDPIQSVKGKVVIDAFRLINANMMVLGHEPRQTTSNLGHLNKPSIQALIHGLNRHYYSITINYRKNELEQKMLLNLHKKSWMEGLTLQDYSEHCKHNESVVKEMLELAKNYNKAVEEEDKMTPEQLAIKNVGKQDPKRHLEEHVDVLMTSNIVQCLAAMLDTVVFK
# [15] = molecular target: Prothrombin (Bos taurus, UniProt P00735); assay: thrombin protease inhibitors – biochemical, fluorescence polarization, uHTS hits, dose response (AID 602369); assay type: functional
# [16] = tested on: BJ; assay: growth inhibition of engineered Ras-driven BJ cells – cell-based, alamar blue fluorescence, cherrypicked samples, dose response (AID 2631); assay type: functional; settings: Homo sapiens;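 also: confirmatory dose-response assay in RAS-dependent BJ fibroblasts engineered with TERT, LT and ST, with cytotoxicity read by fluorescence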
# [17] = molecular target: T3, Estrogen receptor beta (Homo sapiens, UniProt Q92731); assay: blockers of SRC-3 recruitment to ERβ – biochemical, ELISA, streptavidin-HRP readout, orthogonal assay, confirmation (AID 1060)
# T3 sequence (Q92731 whole entry): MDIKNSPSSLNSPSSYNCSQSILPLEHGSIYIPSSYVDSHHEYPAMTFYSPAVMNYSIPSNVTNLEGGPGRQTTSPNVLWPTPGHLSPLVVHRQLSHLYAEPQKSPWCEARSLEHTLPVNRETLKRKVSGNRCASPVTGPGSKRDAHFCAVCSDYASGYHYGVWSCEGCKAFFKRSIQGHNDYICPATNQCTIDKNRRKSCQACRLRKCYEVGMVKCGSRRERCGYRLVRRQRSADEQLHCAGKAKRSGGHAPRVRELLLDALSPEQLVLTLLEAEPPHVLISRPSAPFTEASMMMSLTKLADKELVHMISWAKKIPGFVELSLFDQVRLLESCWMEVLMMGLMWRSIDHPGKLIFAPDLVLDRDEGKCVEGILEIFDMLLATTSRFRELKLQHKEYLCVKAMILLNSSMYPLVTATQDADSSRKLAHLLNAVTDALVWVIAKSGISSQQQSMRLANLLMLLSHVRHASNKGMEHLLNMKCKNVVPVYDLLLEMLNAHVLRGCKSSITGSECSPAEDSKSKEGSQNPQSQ
# [18] = molecular target: Luciferin 4-monooxygenase (Photinus pyralis, UniProt P08659); assay: inhibition of purified Photinus pyralis luciferase – biochemical, luminescence, dose response (AID 1891)
# Sequence of Luciferin 4-monooxygenase (P08659 whole entry): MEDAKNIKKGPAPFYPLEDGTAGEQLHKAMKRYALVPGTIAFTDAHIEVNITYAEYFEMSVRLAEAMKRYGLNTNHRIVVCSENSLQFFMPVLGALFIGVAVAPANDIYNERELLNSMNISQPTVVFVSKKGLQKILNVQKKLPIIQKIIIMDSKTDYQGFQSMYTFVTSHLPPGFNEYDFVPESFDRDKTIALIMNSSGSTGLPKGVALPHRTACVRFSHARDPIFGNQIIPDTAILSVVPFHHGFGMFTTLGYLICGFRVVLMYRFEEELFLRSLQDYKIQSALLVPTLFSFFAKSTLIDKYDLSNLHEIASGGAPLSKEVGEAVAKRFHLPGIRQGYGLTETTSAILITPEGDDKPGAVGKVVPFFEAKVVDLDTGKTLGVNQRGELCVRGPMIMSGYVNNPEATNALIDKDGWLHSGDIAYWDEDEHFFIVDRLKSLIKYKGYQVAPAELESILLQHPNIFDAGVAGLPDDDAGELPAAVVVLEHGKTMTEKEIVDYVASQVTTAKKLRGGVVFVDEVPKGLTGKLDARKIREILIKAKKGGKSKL
# [19] = tested on: BJ; assay: cells; assay type: functional, cell-based; settings: Homo sapiens
# [20] = Luminescence Cell-Based Dose Confirmation HTS to Identify Inhibitors of Platelet Dense Granule Release. [Related pubchem assays: 1663 (Primary HTS), 1678 (Summary of Project)]; assay type: functional
# [21] = molecular target: T3, Estrogen receptor beta
# [22] = HEK-293T viability loss after treatment – luminescence, T-cell screen hits, cytotoxicity control for TCR NF-kB inhibitor project, dose response (AID 489026); assay type: functional, cell-based;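 also: cells exposed to compound about 14 hours before the viability readout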
# [23] = DRD fibroblast viability loss – cell-based, non-viral oncogenic, luminescence, dose response (AID 1934); assay type: functional; settings: Homo sapiens
# [24] = tested on: BJ; assay: BJ-TERT fibroblast viability loss – cell-based, RAS-independent, luminescence, dose response (AID 1933); assay type: functional; settings: Homo sapiens
# [25] = tested on: BJ; assay: BJ-TERT-LT-ST fibroblast viability loss – cell-based, RAS-independent, luminescence, dose response (AID 1935); assay type: functional; settings: Homo sapiens;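 also: BJ fibroblasts immortalized with TERT plus LT and ST oncogenes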
# [26] = molecular target: T4, High affinity choline transporter 1 (Homo sapiens, UniProt Q9GZV3); assay: human choline transporter blockers, potency – cell-based, 5-point CRC, membrane potential dye, dose response (AID 504840); assay type: functional
# T4 sequence (Q9GZV3 whole entry): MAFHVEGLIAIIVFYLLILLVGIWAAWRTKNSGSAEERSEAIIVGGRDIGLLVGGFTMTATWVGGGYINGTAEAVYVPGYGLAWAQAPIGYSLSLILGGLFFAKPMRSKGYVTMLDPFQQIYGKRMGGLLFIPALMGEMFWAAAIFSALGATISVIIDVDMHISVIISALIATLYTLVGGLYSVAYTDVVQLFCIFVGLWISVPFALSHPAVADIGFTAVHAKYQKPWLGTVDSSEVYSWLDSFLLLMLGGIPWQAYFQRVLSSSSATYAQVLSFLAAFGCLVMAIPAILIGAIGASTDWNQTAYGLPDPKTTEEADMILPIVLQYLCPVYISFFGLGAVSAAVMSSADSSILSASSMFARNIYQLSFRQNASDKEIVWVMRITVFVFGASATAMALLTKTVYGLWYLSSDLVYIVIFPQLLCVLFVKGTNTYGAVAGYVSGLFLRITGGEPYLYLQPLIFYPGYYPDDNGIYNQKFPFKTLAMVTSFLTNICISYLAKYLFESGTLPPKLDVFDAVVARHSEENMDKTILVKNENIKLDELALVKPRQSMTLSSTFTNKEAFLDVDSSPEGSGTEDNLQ
# [27] = molecular target: Eukaryotic translation initiation factor 4E (Mus musculus, UniProt P63073); assay: blockers of eIF4G binding by eIF4E – biochemical, TR-FRET, dose response (AID 855); assay type: functional;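 also: potency for disrupting eIF4E binding to eIF4GI seen as loss of FRET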
# Sequence of Eukaryotic translation initiation factor 4E (P63073 whole entry): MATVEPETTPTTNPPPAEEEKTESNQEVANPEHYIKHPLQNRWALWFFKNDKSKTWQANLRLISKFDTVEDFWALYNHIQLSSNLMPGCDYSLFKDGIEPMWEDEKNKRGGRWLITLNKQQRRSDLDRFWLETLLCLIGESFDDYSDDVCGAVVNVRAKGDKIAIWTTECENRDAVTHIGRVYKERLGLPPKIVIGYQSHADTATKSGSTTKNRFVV
# [28] = tested on: H4; assay: Luminescence Cell-Based Dose Response HTS to Identify Activators of 5'UTR Stem-Loop Driven Prion Protein mRNA Translation in H4 Neuroglioblastoma Cells. [Related pubchem assays: 1829 (Project Summary), 1814 (Primary HTS)]; assay type: functional; settings: Homo sapiens
# [29] = Luminescence Cell-Based Dose Confirmation HTS to Identify Activators of 5'UTR Stem-Loop Driven Alpha-Synuclein mRNA Translation in H4 Neuroglioblastoma Cells. [Related pubchem assays: 1829 (Project Summary), 1814 (Primary HTS)]; assay type: functional
# [30] = Luminescence Cell-Based Dose Response HTS to Identify Activators of Luciferase Translation or Activity in H4 […] Cells. [Related pubchem assays: 1829 (Project Summary), 1814 (Primary HTS)]; assay type: functional
# [31] = viability of uninfected HEp-2 cells – cell-based, HTS, cytotoxicity control for RSV inhibitor project, dose response (AID 2410); assay type: functional; settings: human respiratory syncytial virus
# [32] = molecular target: G-protein coupled receptor 55 (Homo sapiens, UniProt Q9Y2T6); assay: inhibition of LPI-stimulated GPR55 beta-arrestin translocation – imaging, U2OS, beta-arrestin-GFP, LPI agonist, primary screen (AID 2013); assay type: functional;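 also: antagonist potency measured as reduced agonist-driven arrestin aggregation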
# Sequence of G-protein coupled receptor 55 (Q9Y2T6 whole entry): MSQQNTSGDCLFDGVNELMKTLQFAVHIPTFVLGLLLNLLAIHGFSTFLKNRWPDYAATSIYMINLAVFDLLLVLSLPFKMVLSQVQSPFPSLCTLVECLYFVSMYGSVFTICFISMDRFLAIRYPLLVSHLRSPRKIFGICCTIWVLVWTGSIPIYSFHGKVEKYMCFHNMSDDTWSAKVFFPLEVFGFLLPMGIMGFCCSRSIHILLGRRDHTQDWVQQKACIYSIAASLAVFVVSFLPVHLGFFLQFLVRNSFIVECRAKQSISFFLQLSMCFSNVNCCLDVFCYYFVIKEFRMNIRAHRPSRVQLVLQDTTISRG
# [33] = tested on: Vero; assay: cells; assay type: functional, cell-based; settings: Chlorocebus sabaeus
# [34] = molecular target: Heat shock protein HSP 90-alpha (Homo sapiens, UniProt P07900); assay type: functional, organism-based
# [35] = tested on: Vero; assay: cells; assay type: functional; settings: Chlorocebus sabaeus
# [36] = tested on: HEK293; assay: EBV LMP1 TES2 canonical NF-kB signalling blockers – cell-based, HEK293, luciferase, cherry-pick, dose response (AID 588343); assay type: functional; settings: Homo sapiens
# [37] = non-specific 3'UTR reporter inhibition in Clone20-Shn3RL – cell-based, Renilla luciferase, cherry-picked, counter-screen for Shn3 inhibitor project, dose response (AID 624133); assay type: functional
# [38] = Fluorescence-based cell-based high throughput dose response assay for inhibitors of the interaction of nucleotide-binding oligomerization domain containing 2 (NOD2) and the receptor-interacting serine-threonine kinase 2 (RIPK2).; assay type: functional, Homo sapiens; settings: Homo sapiens
smiles,measurement,setting,value
O=C(c1ccccc1)N1CCCC(c2nc(O)c3nnn(Cc4ccccc4)c3n2)C1 (stereo unspecified),IC50,[1],> 50 µM (inactive)
CCc1ccc(OCCNc2cc(N3CCNC(C)C3)ccc2[N+](=O)[O-])cc1 (stereo unspecified),EC50,[2],> 89.2 µM (inactive)
same,CC50,[3],13.9 µM (active)
same,AC50,[4],7.97 µM (active)
same,CC50,[5],12.4 µM (active)
same,IC50,[6],> 20 µM (inactive)
same,IC50,[7],37.4 µM (active)
same,AC50,[8],15.6 µM (active)
same,CC50,[9],12.4 µM (active)
same,IC50,[10],24 µM (active)
Cc1ccc(-c2ccc(/C=C3\SC(N4CCOCC4)=NC3=O)o2)cc1,EC50,[11],0.655 µM (active)
same,IC50,[12],> 100 µM (inactive)
same,EC50,[13],17.1 µM (active)
same,IC50,[14],9.69 µM (active)
same,IC50,[15],7.72 µM (active)
c1ccc(-c2noc(-c3ccc4c(c3)OCO4)n2)nc1,EC50,[16],> 133 µM (inactive)
same,IC50,[17],> 109 µM (not active)
same,EC50,[18],0.105 µM (active)
same,EC50,[19],1.47 µM (active)
same,EC50,[20],1.1 µM (active)
same,IC50,[21],37.8 µM (not active)
same,IC50,[22],> 80 µM (inactive)
same,EC50,[23],1.67 µM (active)
same,EC50,[24],2.1 µM (inconclusive)
same,EC50,[25],6.29 µM (inconclusive)
O=C(OCC(=O)c1c[nH]c2ccccc12)c1cccc(O)c1,IC50,[26],15.8 µM (active)
same,IC50,[27],> 64 µM (inactive)
same,EC50,[28],8.02 µM (active)
same,EC50,[29],5.16 µM (active)
same,EC50,[30],12.3 µM (active)
O=C(Nc1nc2n(n1)C(c1ccc(Cl)cc1)CC(c1ccc(Cl)cc1)N2)c1ccco1 (stereo unspecified),CC50,[31],12.8 µM (active)
same,IC50,[1],> 50 µM (inactive)
CC(=O)c1ccc(OC(=O)c2ccc(Br)o2)cc1,IC50,[1],18.5 µM (active)
CCc1ccc(C(=O)NC(=S)Nc2ccccc2N2CCOCC2)cc1,IC50,[32],1.2 µM (active)
CCOC(=O)c1cnc2c(c(C)nn2C)c1Oc1ccc(Cl)cc1,IC50,[32],3.54 µM (active)
CC(=NNc1nc2ccccc2s1)c1ncccn1,IC50,[33],> 25 µM (active)
same,AC50,[34],1.61 µM (active)
same,CC50,[35],9.06 µM (active)
same,AC50,[36],14 µM (active)
same,IC50,[7],5.05 µM (active)
O=C(NCc1ccccn1)c1cn(CCc2ccccc2)nn1,IC50,[1],> 50 µM (inactive)
CCN(C(C)=O)c1cnc(C=NNC(N)=S)c2ccccc12,IC50,[7],6.69 µM (active)
CCN(CC)CCN1C(=O)/C(=C\c2ccc(Cl)c([N+](=O)[O-])c2)S/C1=N\c1ccc(OC)cc1,EC50,[16],0.537 µM (active)
same,AC50,[4],16.8 µM (active)
same,CC50,[35],15.7 µM (active)
same,EC50,[19],4.01 µM (active)
same,AC50,[37],10.4 µM (active)
same,IC50,[38],2.75 µM (active)
same,AC50,[8],2.11 µM (active)
same,EC50,[23],2.86 µM (active)
same,EC50,[24],2.1 µM (active)
same,EC50,[25],1.65 µM (active)
CC1(C)CC(=O)C(/C=N/CC2CCN(C(=O)Cc3ccccc3)CC2)=C(O)C1,IC50,[12],> 100 µM (inactive)
same,IC50,[14],> 100 µM (inactive)
same,IC50,[15],> 100 µM (inactive)
OC(CCCN1CCCCC1)(c1ccccc1)c1ccccc1 [DIPHENIDOL HYDROCHLORIDE],AC50,[36],323 µM (active)
